Tested on: organ cultured adipose tissue (epididymal fat tissue)
Assay: Adipose organ culture apoptosis assay (Bax immunostaining)
Type: cell-based, rat
Conditions: seven days incubation, 1 μg TNF-α
Procedure: Epididymal fat tissue was excised and cut into pieces (1 cm^3), and cultured. Briefly, tissue was placed in Dulbecco's Modified Eagle Medium containing 10% fetal bovine serum and penicillin/streptomycin, and incubated at 37° C. Samples (n=3) were injected with PBS, TNF-α protein (1 μg), blank microspheres, or microspheres containing TNF-α (total 1 μg TNF-α) and incubated at 37° C. After 3 or 7 days, the tissue was rinsed 1× with PBS, placed in 3.7% formaldehyde overnight and stored in 70% ethanol prior to sectioning for histology.
Tissue samples were bisected and subjected to butyl processing and paraffinization by standard procedures, at the histology core facility at the University of Michigan School of Dentistry. This process removes all lipids droplets from the tissue, enabling reproducible and rapid staining. […] Samples were counterstained with hematoxylin, imaged using a Nikon Eclipse E800, and Bax positive and negative cells were counted manually from at least 10 randomly chosen fields. Data were subjected to statistical analysis to determine the significance of the difference (P<0.05) among the measured population proportions of Bax positive cells, using a binomial equation. […]

## tumor necrosis factor-alpha [TNF-α protein]
  Bax staining of adipose tissue: high levels of staining
1 cm^3 explanted tissue
  percentage of Bax positive cells (apoptotic cells): 54%
